The record followed here is patent US7192734B2, “Method of testing for the presence of microorganisms in a gaseous environment comprising hydrogen peroxide” (Millipore Corporation, priority 2002, dated 2007).

Test [1] has as its system microorganisms. The note with it: 1 m^3 air comprising 0.3 ppm sprayed hydrogen peroxide; TSA growth medium.
Test [2] has as its system microorganisms. The experiment in a line: Level of recovery of microorganisms on TSA medium with 1% sodium pyruvate, after impact of air comprising hydrogen peroxide vapour (Examples 3 and 4). In kind it is cell-based. The note with it: 1 m^3 air, 8 ppm hydrogen peroxide vapour; TSA + 1% by weight sodium pyruvate. The procedure: Example 1 was reproduced but with the use of 1 m^3 of air comprising 8 ppm (instead of 0.3 ppm) of hydrogen peroxide vapour (instead of sprayed hydrogen peroxide which was impacted, firstly, on a TSA growth medium, then, secondly, on the TSA medium to which 1% by weight of sodium pyruvate was added.
The results obtained are shown in FIG. 2, in which the x-axis represents the nature of the microorganisms and the y-axis represents the level of recovery.
Example 3 was reproduced by sampling 1 m^3 of air comprising 8 ppm of hydrogen peroxide which were impacted, firstly, on the same TSA growth medium to which 1% by weight of sodium pyruvate was added, not sterilized by the action of gamma radiation. Then, secondly, the same test was repeated but, this time, on the same growth medium sterilized by the action of gamma radiation.
The results obtained are shown in FIG. 3, in which the x-axis represents the nature of the microorganisms and the y-axis represents the level of recovery.

For test [3], the system named is Miccrococus luteus ATCC9342. The experiment in a line: Tolerance in drastic conditions: 100 and 300 ppm hydrogen peroxide, 1% and 5% pyruvate in TSA (Example 5, part 3, Table I). Particulars: hydrogen peroxide 300 ppm; pyruvate 5%. In kind it is cell-based, Miccrococcus luteus. From the text: The conditions of Example 3 were reproduced using high concentrations of pyruvate (≧1%), in the presence or absence of hydrogen peroxide in the gaseous environment.
3/ Tolerance of Miccrococcus luteus in drastic conditions, when hydrogen peroxide is raised up to 300 ppm in the gaseous environment and the concentration of pyruvate is up to 5% by weight of agar growth medium.
Miccrococcus luteus growth has been monitored using respectively 100 ppm and 300 ppm of hydrogen peroxide, whereas the concentration of pyruvate by weight of TSA agar growth medium was 1% and 5%.

For `OO` [hydrogen peroxide], in the test on microorganisms [1], the “effect on formation of colonies of microorganisms” value is given as “inhibiting of the formation of the colonies of microorganisms”.

With `CC(=O)C(=O)[O-].[Na+]` [sodium pyruvate], the “formation and counting of colonies of microorganisms” value with microorganisms [2] is “permits the formation and counting of colonies of microorganisms”. The “growth of Miccrococcus luteus” value in test [3] is “enable growth of Miccrococcus luteus”.
